US7666414B2, “Methods for treating prostate cancer using modified antibodies to prostate-specific membrane antigen” (Cornell Research Foundation, Inc., priority 2001, dated 2010)
Like-named read-outs stand apart in the source and are kept apart here.

Experiments:
LNCaP cells = assay: Immunoreactivity by the method of Lindmo; design: species or system human; conditions: 111In labeled, binding extrapolated to infinite antigen excess
Method: The solutions were incubated at 4° C. for 60 minutes prior to being isolated (by centrifugation) and washed with ice cold PBS. The membranes were then counted in a gamma counter with standards representing the total radioactivity added. The data was plotted using the Lindmo method as the reciprocal of the substrate concentration α-axis) against the reciprocal of the fraction bound (y-axis). The data was then fitted according to a least squares linear regression method (Sigma Plot) and the y intercept taken as the reciprocal of the immunoreactivity. A similar method using membranes derived from LNCaP cells, and subsequent centrifugation isolation of the membranes, gave similar results. The results gave an average immunoreactivity of 72% (see Table 11).
Briefly five test solutions were prepared (in duplicate) containing 10,000 cpm of ^111Indium labeled-DOTA-deJ591 and various amounts of LNCaP cells or cell membranes, in a total test volume of 250 μL of 0.2% BSA 10 mM HEPES. The solutions were incubated at 4° C. for 60 minutes prior to being isolated (by centrifugation) and washed with ice cold PBS. The membranes were then counted in a gamma counter with standards representing the total radioactivity added. The data was plotted using the Lindmo method as the reciprocal of the substrate concentration α-axis) against the reciprocal of the fraction bound (y-axis). The data was then fitted according to a least squares linear regression method (Sigma Plot) and the y intercept used as the reciprocal of the immunoreactivity. The target for immunoreactivity was not less than 75%.

prostate tissue = assay: Immunohistochemistry of DOTA conjugated deJ591
Method: Immunohistochemistry was performed on the DOTA conjugated, partially purified, bulk intermediate deJ591.

[1] = molecular target: prostate specific membrane antigen (Homo sapiens, UniProt Q04609); assay: Competitive binding sites on PSMA; conditions: relative to J591, J533, E99 site
Text: To kill or ablate normal, benign hyperplastic, and cancerous prostate epithelial cells, a first antibody, e.g., a modified antibody, can be conjugated with a prodrug which is activated only when in close proximity with a prodrug activator. The prodrug activator is conjugated with a second antibody, e.g., a second modified antibody according to the present invention, preferably one that binds to a non-competing site on the prostate specific membrane antigen molecule. Whether two modified antibodies bind to competing or non-competing binding sites can be determined by conventional competitive binding assays. […] Monoclonal antibody J415, on the other hand, binds to a binding site that is non-competing with the site to which J591, J533, and E99 bind. Thus, for example, the first modified antibody can be one of J591, J533, and E99, and the second modified antibody can be J415. Alternatively, the first modified antibody can be J415, and the second modified antibody can be one of J591, J533, and E99. Drug-prodrug pairs suitable for use in the practice of the present invention are described in Blakely et al., “ZD2767, an Improved System for Antibody-directed Enzyme Prodrug Therapy That Results in Tumor Regressions in Colorectal Tumor Xenografts,” (1996) Cancer Research, 56:3287-3292, which is hereby incorporated by reference.

[2] = test system: vascular endothelium of solid tumors; assay: Phase I trial of 111In-DOTA-deJ591 in refractory solid tumor malignancies; format: in vivo; conditions: for Plasma clearance (T1/2): human
Text: Eligible patients were those with refractory solid tumor malignancies whose tumor types are known to express PSMA on the neovasculature.
Patients the participated in the study included eight renal cell cancer patients, four bladder cancer patients, two colon cancer patients, and one pancreas cancer patient.

[3] = test system: recurrent, progressing prostate cancer; assay: Phase I trial of 111In-DOTA-deJ591, four weekly doses; format: in vivo, human
Method: Patients with recurrent, progressing prostate cancer received four weekly doses of ^111In-DOTA-deJ591. Doses were escalated in cohorts of three patients and ranged from 62.5-500 mg/m2 (total). […] After the first dose, patients were imaged on the day of injection (day 0) and days 1, 2, 4 and 7.
Serum PK, immune reaction and toxicity were evaluated after each dose for a minimum of 12 weeks.

[4] = test system: hormone refractory prostate cancer; format: in vivo, human
Text: All patients had rising PSA levels on three consecutive measurements.

[5] = test system: recurrent prostate cancer; assay: Phase II trial of deJ591 with low-dose subcutaneous IL-2; format: in vivo, human; conditions: in combination with daily low-dose subcutaneous IL-2; six patients entered
Method: Patients receive daily low-dose subcutaneous rIL-2 (1.2×10^6 IU/m^2/day) on day 1 through day 56. […] IL-2 administration is continued during this period another two weeks afterwards. This 8-week regimen constitutes one cycle of therapy. Patients are evaluated for response at the end of one cycle. Patients who have responded to therapy or have stable disease are eligible for additional cycles of therapy. Additional cycles will be initiated when there is at least two consecutive rises in PSA at least 2 weeks apart. […] The dose of antibody will be adjusted based on additional data analysis of patients treated in this manner.

[6] = test system: PSMA-positive human LNCaP tumors; design: species or system nude mice; conditions: mouse, in vivo
Method: (§1) Prior to use, the cells were trypsinized, counted and suspended in Matrigel (Collaborative Biomedical Products, Bedford, Mass.). Nu/Nu Balb C mice 8-10 weeks of age were inoculated, in the right and left flanks, with a suspension of 5×10^6 LNCaP cells in Matrigel (BD Biosciences, Bedford Mass.). After a period of 14-18 days, tumors (100-300 mg) had developed. The PSMA-negative DU145 and PC3 cells were implanted in nude mice in an identical manner.
(§2) The PSMA-positive and PSMA-negative tumor bearing mice were injected, via the tail vein, with 80 KBq of the iodinated MAb (400 MBq/mg) in 200 μL of PBS (pH 7.4, 0.2% BSA). Groups of animals (3-8/group) were sacrificed after 2, 4 or 6 days. The major organs and tumors were recovered. The tissue samples were weighed and counted, with appropriate standards in an automatic NaI(Tl) counter. These measured relative activity data (cpm) were background corrected and expressed as a percentage of the injected dose per gram (% ID/g). […] J415, J591 and 7E11 were labeled with ^111In (100 MBq/mg). 80 KBq of the ^111In labeled MAbs were injected in groups of animals. The % ID/g in various organs and tumor tissues was determined at 2-6 days post injection in a similar way as described for ^131I labeled MAbs.
For the imaging studies, animals were injected with 2 MBq of ^111In-DOTA-J591. […]

[7] = test system: hormone-refractory prostate cancer metastases; assay: Nuclear imaging with 111In or 177Lu labeled deJ591 versus standard imaging; format: in vivo, human
Method: The antibody scans were compared to standard imaging studies (bone, CT or MR scans) obtained on each patient to assess the underlying sensitivity, specificity, and accuracy of deJ591 targeting to metastatic sites. Bony and soft tissue metastases were evaluated independently.

[8] = test system: PSMA-positive CWR22 xenografts; assay: Efficacy in PSMA-positive CWR22 xenografts; format: in vivo, C.B-17 scid mice
Method: (§3) Experiment: Male SCID mice were implanted by serial passage of CWR22 prostate tumor xenograft. […] All treatments were given intravenously. Tumor growth and animal health were continually monitored throughout the study with tumor growth measured every 3 days.
Experiment: Male C.B-17 SCID mice bearing CWR22 xenografts approximately 200 mm^3 in size received IV injections (200 μL constant volume) of the test articles according to the dose and schedule as shown in Table 22.
Male C.B-17 scid mice bearing CWR22 xenografts approximately 200 mm^3 in size received IV injections (200 μL constant volume) of the test articles according to the dose and schedule shown in the Table 23.
The objective of this study was to determine how much the dosing interval could be increased at this dosage before a loss of efficacy in terms of TGD would be observed. […] The growth delays for the other schedules were: q7d, 53.0 days; q21d, 48.0 days; and q28d, 26.9 days. Similar to other studies using the CWR22 xenograft model, no curative responses were observed, with all tumors eventually resuming growth (FIG. 18).
as §3, with “intravenously and on a schedule of every three days for 5 doses.” for “intravenously.”
as §3, with “intravenously and on a schedule of every seven days for 5 doses.” for “intravenously.”

[9] = test system: PSMA-positive human LNCaP tumors; assay: Biodistribution of 131I labeled MAbs in nude mice bearing LNCaP tumors; conditions: mouse, in vivo
Method: as §1, §2

prostate cancer = conditions: in vivo
Method: A single patient was treated with mAb deJ591. This patient had bulky, poorly differentiated prostate cancer and had failed multiple courses of external beam radiotherapy as well as multiple forms of hormonal and non-hormonal chemotherapy. […] Four doses (#1, 3, 6 and 11) were trace-radiolabeled with either ^131Iodine or ^111Indium for pharmacokinetic determinations and biodistribution. The mean effective serum residence time of ^131I-deJ591 ranged from 31.9 to 51.3 hours, depending on the dose. Tumor localization to known tumor sites was excellent after each of the radiolabeled doses over the five month period. Dose twelve was radiolabeled with a therapeutic quantity of ^90Yttrium (19mCi) calculated to deliver less than a 150 rad dose to the blood. This dose was determined in consultation with the FDA and took into account prior radiotherapy delivered by external beam and by 131 Iodine. […] The patient's platelet count dropped to 64,000 (normal: 150,000-300,000) at five weeks post ^90Y-DOTA-deJ591 administration (as an anticipated result of radiation to the bone marrow) prior to spontaneously returning to normal levels. […] The patient experienced no side effects. The patient's PSA declined from 63 at the time of deJ591-DOTA-9Y administration to 36. […] This patient succumbed to their metastatic prostate cancer ten and one-half months after initiating treatment with ^90Y-DOTA-deJ591.

[10] = four weekly doses, 62.5-500 mg/m2 total

Chain of prostate specific membrane antigen (Q04609 whole entry): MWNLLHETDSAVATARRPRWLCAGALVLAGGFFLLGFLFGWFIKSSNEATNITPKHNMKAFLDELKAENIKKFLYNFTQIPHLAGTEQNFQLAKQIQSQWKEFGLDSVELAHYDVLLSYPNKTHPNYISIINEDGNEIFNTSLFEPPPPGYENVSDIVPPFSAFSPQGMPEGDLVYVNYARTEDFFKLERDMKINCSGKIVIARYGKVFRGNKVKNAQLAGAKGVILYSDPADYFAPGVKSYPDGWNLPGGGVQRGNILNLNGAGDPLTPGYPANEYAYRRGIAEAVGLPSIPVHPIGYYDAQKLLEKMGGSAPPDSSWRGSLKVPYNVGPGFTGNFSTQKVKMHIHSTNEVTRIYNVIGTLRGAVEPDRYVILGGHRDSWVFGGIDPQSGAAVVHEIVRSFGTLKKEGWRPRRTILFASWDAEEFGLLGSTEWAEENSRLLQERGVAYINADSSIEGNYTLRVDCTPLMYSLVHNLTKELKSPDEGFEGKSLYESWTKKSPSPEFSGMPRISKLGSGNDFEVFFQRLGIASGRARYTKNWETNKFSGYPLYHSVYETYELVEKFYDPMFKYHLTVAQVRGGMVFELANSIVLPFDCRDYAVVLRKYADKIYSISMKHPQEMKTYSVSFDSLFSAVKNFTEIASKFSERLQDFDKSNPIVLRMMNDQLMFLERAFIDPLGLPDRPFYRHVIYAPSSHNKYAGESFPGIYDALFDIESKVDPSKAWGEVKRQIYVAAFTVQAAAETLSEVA

## DOTA conjugated deJ591
LNCaP cells
  Immunoreactivity: 95%
LNCaP cells; listed as Lot 243101
  Immunoreactivity: 95%
LNCaP cells; listed as Lot BIOV983.2-2
  Immunoreactivity: 72%
Prostate tissue
  Immunohistochemistry specificity and reactivity: specific to prostate tissue and the reactivity was equivalent to the naked deJ591 antibody

## J591: murine monoclonal antibody to the extracellular domain of human PSMA, hybridoma ATCC HB-12126
[1]
  binding site on the prostate specific membrane antigen molecule: bind to competing binding sites

## ^111In-DOTA-deJ591
[2]; 7 renal cell, 2 bladder, 1 colon cancer
  tumor targeting: ten of the fifteen patients
[2]; a colon cancer patient
  decline in CEA: 50%
[2]; in vivo
  false negative imaging: five of the fifteen patients
  objective responses: No objective responses occurred
[3]; [10]
  immune reaction to the antibody: None of the patients developed an immune reaction to the antibody
  toxicity or side effects: Neither this latter patient nor the remaining thirteen patients experienced any toxicity or side effects
[3]; ten patients with positive bone scans
  mAb targeting to bony sites: all ten demonstrated excellent mAb targeting to bony sites
[3]; three patients with soft tissue disease on CT
  mAb targeting to soft tissue disease: two demonstrated mAb targeting to these sites
LNCaP cells
  Immunoreactivity: 72%
[4]; four of twenty-two
  false negative imaging in patients who had imagable disease: 18%
[4]; human, in vivo, 20 mg
  Plasma clearance (T1/2): 34 ± 5 h
[4]; sixteen of twenty-two, 20 mg, 185 MBq
  tumor targeting in patients who had imagable disease: 72.7%

## deJ591: deimmunized form of murine anti-PSMA antibody J591, human IgG1/kappa constant regions, NS0 cell line ATCC PTA-3709
[2]; 5 mg
  Liver uptake: 28%+/−14
[2]; 10 mg
  Liver uptake: 17%+/−7
[2]; 20 mg
  Liver uptake: 13%+/−5
[2]; in vivo, 5 mg
  Plasma clearance (T1/2): 21 ± 11 h
[2]; in vivo, 10 mg
  Plasma clearance (T1/2): 24 ± 6 h
[2]; in vivo, 20 mg
  Plasma clearance (T1/2): 37 ± 8 h
[5]
  Toxicities: expected and minor
[6]
  blood activity: 2.52±0.16 % ID/g
[7]; eight out of nine
  patients with soft tissue masses accurately targeted: 89%
[7]; fifteen patients
  patients without documented soft tissue metastases with negative mAb scans: 100%
[7]; seven patients
  specificity, negative bone scans negative on the deJ591 scan: 100%
[7]; soft tissue and bony metastases
  concordance between standard imaging and mAb scans: 91%
[7]; twelve of fifteen
  patients with bone metastases on bone scan accurately targeted: 80%
[8]; Comparison II, 12.96 mg/kg, q3dX5
  Tumor Growth Delay: 1.9 days
[8]; every three days for 5 doses, IV, equimolar to 14.5 mg/kg deJ591-DM1
  effect on CWR22 xenograft tumor growth: no significant effect
[9]
  blood activity: significantly lower compared to that of 7E11
  tumor uptake: 8.55±1.29 % injected dose/gram
Prostate cancer
  human anti-deimmunized antibody (immune) response: No detectable human anti-deimmunized antibody (immune) response developed
